# Laboratory results: patent US5250518A, “O-methyl derivatives of azithromycin A” (priority 1990, dated 1993)
# Tests used:
# [1] = tested on: ATCC 6538P; assay: Antibacterial in vitro activity in comparison with azithromycin (Table 3); format: cell-based, Staphilococcus aureus; conditions: for MIC: Brain hearth Bouillon, 24-48 hours, 37° C., inoculum 10^-5 -10^-6 cfu/mL, read-out: MIC
# Text: (§1) In Table 3 there are represented in vitro tests of 6-O-methyl- (Ii), 6,11-di-O-methyl- (Ij), 11-O-methyl- (Ik) and 6,11,4"-tri-O-methyl-azithromycin A (II) in comparison with azithromycin.
# [2] = tested on: gram-positive and gram-negative test bacteria and clinical isolates; assay: Preliminary antibacterial in vitro activity, tube dilution method (Tables 1 and 2, summary); format: cell-based; conditions: versus erythromycin A
# Experimental: (§2) O-methyl derivatives of azithromycin A of the formulae (Ii)-(Il) and their pharmaceutically acceptable addition salts have a potent antimicrobial activity. The preliminary antibacterial in vitro activity of 6-O-methyl-azithromycin A (Ii) was determined on a series of gram-positiveand gram-negative test bacteria and clinical isolates in comparison with erythromycin A. The assessment was performed by the "tube dilution" method. In the investigation there were used 24-hours cultures in "brain hearth bouillon" of standard strains and freshly isolated strains from a clinical sample.
# [3] = tested on: Staphylococcus aureus 10099; assay: Antibacterial in vitro activity against clinical isolates, tube dilution method (Table 2); format: cell-based; conditions: clinical isolate, Brain hearth bouillon, 24 hours, 37° C.
# Experimental: as §2
# (§3) Substrate: Brain hearth bouillon
# (§4) Incubation: 24 hours, 37° C.
# (§5) MIC: Minimal Inhibitory Concentration (μg/mL)
# (§6) MBC: Minimal Bactericidal Concentation (μg/mL)
# [4] = tested on: Staphylococcus saprophyticus 3947; assay: as above; format: cell-based; conditions: clinical isolate, Brain hearth bouillon, 24 hours, 37° C.
# Experimental: as §2, §3, §4, §5, §6
# [5] = tested on: Haemophylus influenzae 4028; assay: as above; format: cell-based; conditions: clinical isolate, Brain hearth bouillon, 24 hours, 37° C.
# Experimental: as §2, §3, §4, §5, §6
# [6] = tested on: Streptococcus faecalis 10390; assay: as above; format: cell-based; conditions: Enterococcus faecalis, clinical isolate, Brain hearth bouillon, 24 hours, 37° C.
# Experimental: as §2, §3, §4, §5, §6
# [7] = tested on: Streptococcus pneumoniae 4050; assay: as above; format: cell-based; conditions: clinical isolate, Brain hearth bouillon, 24 hours, 37° C.
# Experimental: as §2, §3, §4, §5, §6
# [8] = tested on: Staphylococcus aureus 10097; assay: as above; format: cell-based; conditions: clinical isolate, Brain hearth bouillon, 24 hours, 37° C.
# Experimental: as §2, §3, §4, §5, §6
# [9] = Biological activity (1 mg contains μg of azithromycin); conditions: per 1 mg of (Ii)
# [10] = tested on: Escherichia coli ATCC 10536; assay: Antibacterial in vitro activity, tube dilution method (Table 1); format: cell-based; conditions: ATCC10536, Brain hearth bouillon, 24 hours, 37° C.
# Experimental: (§7) The preliminary antibacterial in vitro activity of 6-O-methyl-azithromycin A (Ii) was determined on a series of gram-positiveand gram-negative test bacteria and clinical isolates in comparison with erythromycin A. The assessment was performed by the "tube dilution" method. In the investigation there were used 24-hours cultures in "brain hearth bouillon" of standard strains and freshly isolated strains from a clinical sample.
# [11] = tested on: Sarcina lutea ATCC-9341; assay: as above; format: cell-based; conditions: Micrococcus luteus, ATCC9341, Brain hearth bouillon, 24 hours, 37° C.
# Experimental: as §7
# [12] = tested on: ATCC 8043; assay: Antibacterial in vitro activity in comparison with azithromycin (Table 3); format: cell-based; conditions: Staphylococcus faecalis, ATCC8043; Brain hearth Bouillon, 24-48 hours, 37° C., inoculum 10^-5 -10^-6 cfu/mL
# Text: as §1
# [13] = tested on: ATCC 10240; assay: as above; format: cell-based; conditions: Brain hearth Bouillon, 24-48 hours, 37° C., inoculum 10^-5 -10^-6 cfu/mL
# Text: as §1
# [14] = tested on: Sarcina lutea ATCC 9341; assay: as above; format: cell-based; conditions: for MIC: Micrococcus luteus, ATCC9341, Brain hearth Bouillon, 24-48 hours, 37° C., inoculum 10^-5 -10^-6 cfu/mL
# Text: as §1
# [15] = tested on: Escherichia coli ATCC 10536; assay: as above; format: cell-based; conditions: ATCC10536, Brain hearth Bouillon, 24-48 hours, 37° C., inoculum 10^-5 -10^-6 cfu/mL
# Text: as §1
# [16] = tested on: Corynebacterium xerosis NCTC 9755; assay: as above; format: cell-based; conditions: NCTC9755, Brain hearth Bouillon, 24-48 hours, 37° C., inoculum 10^-5 -10^-6 cfu/mL
# Text: as §1
# [17] = tested on: Bacillus subtilis NCTC 8241; assay: as above; format: cell-based; conditions: for MIC: Bacillus subtilis, NCTC8241, Brain hearth Bouillon, 24-48 hours, 37° C., inoculum 10^-5 -10^-6 cfu/mL
# Text: as §1
# [18] = tested on: Bacillus cereus NCTC 10320; assay: as above; format: cell-based; conditions: NCTC10320, Brain hearth Bouillon, 24-48 hours, 37° C., inoculum 10^-5 -10^-6 cfu/mL
# Text: as §1
# [19] = tested on: Pseudomonas aeruginosa NCTC 10490; assay: as above; format: cell-based; conditions: NCTC10490, Brain hearth Bouillon, 24-48 hours, 37° C., inoculum 10^-5 -10^-6 cfu/mL
# Text: as §1
# [20] = tested on: Bacillus pumilus NCTC 8241; assay: as above; format: cell-based; conditions: NCTC8241, Brain hearth Bouillon, 24-48 hours, 37° C., inoculum 10^-5 -10^-6 cfu/mL
# Text: as §1
# [21] = tested on: Staphylococcus epidermidis ATCC 12228; assay: as above; format: cell-based; conditions: ATCC12228, Brain hearth Bouillon, 24-48 hours, 37° C., inoculum 10^-5 -10^-6 cfu/mL
# Text: as §1
# [22] = tested on: Pseudomonas aeruginosa NCTC-10490; assay: Antibacterial in vitro activity, tube dilution method (Table 1); format: cell-based; conditions: NCTC10490, Brain hearth bouillon, 24 hours, 37° C.
# Experimental: as §2, §3, §4, §5
# (§8) MBC: Minimal Bactericidal Concentration (μg/mL)
# [23] = tested on: Staphilococcus aureus ATCC 6538-P; assay: as above; format: cell-based; conditions: Brain hearth bouillon, 24 hours, 37° C.
# Experimental: as §2, §3, §4, §5, §8
# [24] = tested on: Klebsiella pneumoniae NCTC-10499; assay: as above; format: cell-based; conditions: NCTC10499, Brain hearth bouillon, 24 hours, 37° C.
# Experimental: as §2, §3, §4, §5, §8
# [25] = tested on: Streptococcus faecalis ATCC-8043; assay: as above; format: cell-based; conditions: Enterococcus faecalis, ATCC8043, Brain hearth bouillon, 24 hours, 37° C.
# Experimental: as §2, §3, §4, §5, §8
# [26] = tested on: standard bacterial strains; assay: In vitro activity on the series of standard bacterial strains (Table 3, summary); format: cell-based; conditions: versus azithromycin
# Experimental: In Table 3 there are represented in vitro tests of 6-O-methyl- (Ii), 6,11-di-O-methyl- (Ij), 11-O-methyl- (Ik) and 6,11,4"-tri-O-methyl-azithromycin A (II) in comparison with azithromycin. […] Namely, the majority of the investigated bacterial strains was 2 to 4 times more sensitive in comparison with the parent antibiotic.
# Substrate: Brain hearth Bouillon
# Incubation: 24-48 hours, 37° C.
# Inocculum; 10^-5 -10^-6 cfu/mL
# [27] = read-out: MBC (Minimal Bactericidal Concentation)
# [28] = read-out: MIC (Minimal Inhibitory Concentration)
# [29] = read-out: MBC (Minimal Bactericidal Concentration)
smiles,measurement,setting,value
"CC[C@H]1OC(=O)[C@H](C)[C@@H](O[C@H]2C[C@@](C)(OC)[C@@H](O)[C@H](C)O2)[C@H](C)[C@@H](O[C@@H]2O[C@H](C)C[C@H](N(C)C)[C@H]2O)[C@](C)(OC)C[C@@H](C)CN(C)[C@H](C)[C@@H](O)[C@]1(C)O [Ii, 6-O-Methyl-azithromycin A]",MIC,[1],0.39 µg/mL
same,activity with respect to azithromycin (from MIC),"[1]; printed as Micrococcus flavus ATCC 6538 P, versus azithromycin",four times as active
same,"activity on the investigated strains in comparison with erythromycin A, in words",[2],somewhat improved activity
same,MBC,[3]; [27],0.1 µg/mL
same,MIC,[3]; [28],0.05 µg/mL
same,MBC,[4]; [27],0.8 µg/mL
same,MIC,[4]; [28],0.4 µg/mL
same,MBC,[5]; [27],0.2 µg/mL
same,MIC,[5]; [28],0.05 µg/mL
same,MBC,[6]; [27],3.1 µg/mL
same,MIC,[6]; [28],0.8 µg/mL
same,MBC,[7]; [27],0.1 µg/mL
same,MIC,[7]; [28],0.025 µg/mL
same,MBC,[8]; [27],0.4 µg/mL
same,MIC,[8]; [28],0.05 µg/mL
same,Biological activity: 1 mg contains azithromycin,[9],754 μg
same,MBC,[10]; [29],3.2 µg/mL
same,MIC,[10]; [28],1.6 µg/mL
same,MBC,[11]; [29],0.2 µg/mL
same,MIC,[11]; [28],0.1 µg/mL
same,MIC,[12],0.05 µg/mL
same,MIC,[13],0.79 µg/mL
same,MIC,[14],0.0125 µg/mL
same,activity with respect to azithromycin (from MIC),"[14]; Sarcina lutea ATCC 9341, versus azithromycin",twice as active
same,MIC,[15],3.12 µg/mL
same,MIC,[16],12.5 µg/mL
same,activity with respect to azithromycin (from MIC),"[17]; Bacillus subtilis NCTC 8241, versus azithromycin",twice as active
same,MIC,[17],0.2 µg/mL
same,MIC,[18],0.78 µg/mL
same,MIC,[19],100 µg/mL
same,MIC,[20],0.2 µg/mL
same,MIC,[21],0.1 µg/mL
same,MBC,[22]; [29],> 50 µg/mL
same,MIC,[22]; [28],> 50 µg/mL
same,MBC,[23]; [29],0.4 µg/mL
same,MIC,[23]; [28],0.2 µg/mL
same,MBC,[24]; [29],50 µg/mL
same,MIC,[24]; [28],12.5 µg/mL
same,MBC,[25]; [29],0.4 µg/mL
same,MIC,[25]; [28],0.2 µg/mL
"CC[C@H]1OC(=O)[C@H](C)[C@@H](O[C@H]2C[C@@](C)(OC)[C@@H](O)[C@H](C)O2)[C@H](C)[C@@H](O[C@@H]2O[C@H](C)C[C@H](N(C)C)[C@H]2O)[C@](C)(O)C[C@@H](C)CN(C)[C@H](C)[C@@H](OC)[C@]1(C)O [Ik, 11-O-Methyl-azithromycin A]",MIC,[1],0.2 µg/mL
same,MIC,[12],0.05 µg/mL
same,MIC,[13],0.1 µg/mL
same,MIC,[14],0.0125 µg/mL
same,MIC,[15],0.78 µg/mL
same,MIC,[16],1.56 µg/mL
same,MIC,[17],0.1 µg/mL
same,MIC,[18],0.1 µg/mL
same,MIC,[19],25 µg/mL
same,MIC,[20],0.05 µg/mL
same,MIC,[21],0.1 µg/mL
same,"activity in comparison with azithromycin, in words",[26],significantly higher activity
